The record followed here is patent publication US20070135457A1, “Pyrido[2,3-d]pyrimidine-2,4-diamines as pde2 inhibitors” (Pfizer Inc., priority 2003, published 2007).

Read-outs that look alike come from different tables or passages of the source. Where only a bound is given, the exact number is not on record here.

The target in data set [1] is T1, PDE 2 enzyme isolated from human platelets (Homo sapiens, UniProt O00408).
T1 construct: PDE 2 enzyme was isolated from human platelets; from tissue; host or cells: human platelets (pooled blood from multiple donors); HiTrap Q anion-exchange fraction eluting at about 325 mM NaCl
Kind of data set: PDE 2 enzyme scintillation proximity assay (SPA). It is filed as biochemical. The protocol:
PDE 2 enzyme was isolated from human platelets with approximately 1.4 L of blood from multiple donors used to make the platelet pellets. Platelets were resuspended in approximately 75 mL of lysis buffer [20 mM Tris pH 7.2, 5 mM MgCl2, 250 mM Sucrose, 1 mM DTT, 1 μL/2 mL Sigma Protease inhibitor #8340; Sigma-Aldrich; St. Louis, Mo.] and lysed by sonication at 4° C., with 3 rounds of 1 min bursts then spun at 4° C. overnight at 100,000×g. Cleared lysates were loaded to AKTA Explorer FPLC (Amersham Biosciences; Piscataway, N.J.) in a series of three chromatographic separations, with an average load volume of 25 mL. A 5 mL HiTrap Q anion exchange column (Amersham Biosciences) was used. […] Two major cGMP activity fractions (PDE 5 and PDE 2) were isolated and pooled separately. The PDE 2-pooled fraction total was approximately 40 mL which was dispensed in cryovials of 200 μl/vial and placed in storage at −80° C.
The inhibitory activity of the compounds of formula (I) on recombinant or isolated PDE 2, and other PDE's, was determined using the […] scintillation proximity assay (SPA) kits from Amersham International (Little Chalfont, England). The SPA assays were performed using 96 well plates. The PDE SPA yttrium silicate beads (Amersham Biosciences) bind preferentially to the linear nucleotide, GMP, compared to the cyclic nucleotide, cGMP. ^3H-cGMP was added to the reaction and when the product, ^3H-GMP, was in […] to the beads, the scintillant within the bead was excited, which was detected using a Packard scintillation counter (Perkin-Elmer Life Sciences; Boston, Mass.). The enzyme concentration used was in the linear range and the Km of the enzyme was determined (15 uM). The final substrate concentration was <1/3 of Km (1 μM) so that IC50 values would approximate the Ki values. The assay was validated using literature compounds as controls before testing compounds. Then, PDE catalytic activity measurements obtained in the presence of the test compound, and those obtained in the absence of the test compound, were compared and the lC50 value is determined. […]
In general terms: Scintillation proximity formats need no separation of bound from free tracer.

Setting [2] is: SPA, 1 μM substrate, read-out: PDE 2 Inhibition.

T1 sequence (O00408 whole entry): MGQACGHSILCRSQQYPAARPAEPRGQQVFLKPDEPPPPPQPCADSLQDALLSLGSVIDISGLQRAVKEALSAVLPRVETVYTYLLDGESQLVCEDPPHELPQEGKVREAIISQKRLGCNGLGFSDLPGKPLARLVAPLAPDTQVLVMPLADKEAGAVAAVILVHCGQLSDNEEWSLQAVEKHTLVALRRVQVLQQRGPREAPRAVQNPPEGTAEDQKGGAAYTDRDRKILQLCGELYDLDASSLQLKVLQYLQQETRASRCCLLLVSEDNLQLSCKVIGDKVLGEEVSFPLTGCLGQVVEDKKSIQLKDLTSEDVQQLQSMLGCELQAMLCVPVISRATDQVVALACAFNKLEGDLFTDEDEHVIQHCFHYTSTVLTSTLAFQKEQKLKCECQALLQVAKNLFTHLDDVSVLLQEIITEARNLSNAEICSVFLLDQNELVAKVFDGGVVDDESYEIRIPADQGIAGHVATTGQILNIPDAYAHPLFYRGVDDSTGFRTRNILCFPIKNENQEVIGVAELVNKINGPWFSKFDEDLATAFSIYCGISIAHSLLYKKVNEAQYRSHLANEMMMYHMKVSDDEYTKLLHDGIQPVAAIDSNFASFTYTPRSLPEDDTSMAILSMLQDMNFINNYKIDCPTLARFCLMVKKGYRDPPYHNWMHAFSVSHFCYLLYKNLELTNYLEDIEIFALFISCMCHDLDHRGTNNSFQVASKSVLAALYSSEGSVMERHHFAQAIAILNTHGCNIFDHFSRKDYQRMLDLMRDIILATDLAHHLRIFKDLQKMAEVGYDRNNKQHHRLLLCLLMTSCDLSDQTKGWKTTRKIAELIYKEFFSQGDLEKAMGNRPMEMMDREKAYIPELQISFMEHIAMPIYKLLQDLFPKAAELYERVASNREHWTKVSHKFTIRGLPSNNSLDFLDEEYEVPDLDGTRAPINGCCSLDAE

`COc1cc(CNc2nc(NCc3ccccc3)nc3ncccc23)cc(OC)c1` [Example 9, N^2-Benzyl-N^4-(3,5-dimethoxy-benzyl)-pyrido[2,3-d]pyrimidine-2,4-diamine] gave a melting point of 84 to 85 °C. Also, the IC50 in data set [1] (setting [2]) fell in the range of 250 to 1000 nM.

`COc1ccc(CNc2nc(NCCCCc3ccccc3)nc3ncccc23)cc1OC` [Example 18, N^4-(3,4-Dimethoxy-benzyl)-N^2-(4-phenyl-butyl)-pyrido[2,3-d]pyrimidine-2,4-diamine] gave a melting point of 194 to 195 °C. Further, the IC50 in data set [1] (setting [2]) lay within 50 to 250 nM.

As for `COc1ccc(CNc2nc(NCCc3ccccc3F)nc3ncccc23)cc1OC` [Example 15, N^4-(3,4-Dimethoxy-benzyl)-N^2-[2-(2-fluoro-phenyl)-ethyl]-pyrido[2,3-d]pyrimidine-2,4-diamine], the melting point is 220 to 222 °C. In addition, in data set [1] (setting [2]), the IC50 is 50 to 250 nM.

`COc1cc(CNc2nc(NCCOc3ccccc3)nc3ncccc23)cc(OC)c1` [Example 33, N^4-(3,5-Dimethoxy-benzyl)-N^2-(3-phenoxy-ethyl)-pyrido[2,3-d]pyrimidine-2,4-diamine]: the melting point is 165 to 167 °C. Besides, the IC50 in data set [1] (setting [2]) was in the range of 50 to 250 nM.

`COc1ccc(CNc2nc(NCCCc3cccc(C(C)=O)c3)nc3ncccc23)cc1OC` [Example 37, 1-(3-{3-[4-(3,4-Dimethoxy-benzylamino)-pyrido[2,3-d]pyrimidin-2-ylamino]-propyl}-phenyl)-ethanone] had a melting point of 152 to 155 °C. In data set [1] (setting [2]), the IC50 was 250 to 1000 nM.

`COc1cc(CNc2nc(NCCc3ccc(Cl)cc3)nc3ncccc23)cc(OC)c1` [Example 8, N^2-[2-(4-Chloro-phenyl)-ethyl]-N^4-(3,5-dimethoxy-benzyl)-pyrido[2,3-d]pyrimidine-2,4-diamine] gave a melting point of 85 to 90 °C. Besides, the IC50 in data set [1] (setting [2]) lay within 250 to 1000 nM.

As for `COc1ccc(CNc2nc(NCCCc3ccc(C#N)cc3)nc3ncccc23)cc1OC` [Example 30, 4-{3-[4-(3,4-Dimethoxy-benzylamino)-pyrido[2,3-d]pyrimidin-2-ylamino]-propyl}-benzonitrile], the melting point lay within 220 to 222 °C. In addition, the IC50 in data set [1] (setting [2]) was in the range of 250 to 1000 nM.

As to `COc1ccc(CNc2nc(NCCCc3ccc4ncsc4c3)nc3ncccc23)cc1OC` [Example 27, N^2-3-(Benzothiazol-6-yl-propyl)-N^4-(3,4-dimethoxy-benzyl)-pyrido[2,3d]pyrimidine-2,4-diamine], the melting point was in the range of 191 to 193 °C. Moreover, the IC50 in data set [1] (setting [2]) lay in the range of 250 to 1000 nM.

For `COc1cc(CNc2nc(NCc3cc(OC)cc(OC)c3)c3cccnc3n2)cc(OC)c1` [Example 5, N^2-N^4-Bis-(3,5-dimethoxy-benzyl)-pyrido[2,3-d]pyrimidine-2,4-diamine], the melting point is 159 to 160 °C. Further, the IC50 in data set [1] (setting [2]) is < 50 nM.

As for `CCCCCCC(C(C)O)n1cnc2c(N)ncnc21` (stereo not drawn) [EHNA, erythro-9-(2-hydroxy-3-nonyl)adenine, reference compound], the IC50 in data set [1] (PDE 2 isolated from human platelets, read-out: IC50) stood at 1700 nM.

Take `COc1ccc(CNc2nc(NCCCc3cccc(C4(C)OCCO4)c3)nc3ncccc23)cc1OC` [Example 28, N^4-(3,4-Dimethoxy-benzyl)-N^2-{3-[3-(2-methyl-[1,3]-dioxolan-2-yl)-phenyl]-propyl}-pyrido[2,3-d]pyrimidine-2,4-diamine]: the IC50 in data set [1] (setting [2]) lay in the range of 250 to 1000 nM.

For the compound `COc1cc(CNc2nc(NCCCc3ccccc3)nc3ncccc23)cc(OC)c1` [Example 7, N^4-(3,5-Dimethoxy-benzyl)-N^2-(3-phenyl-propyl)-pyrido[2,3-d]pyrimidine-2,4-diamine], the IC50 in data set [1] (setting [2]) was in the range of 50 to 250 nM.

On to `COc1cc(CNc2nc(NCCCc3ccncc3)nc3ncccc23)cc(OC)c1` [Example 31, N^4-(3,5-Dimethoxy-benzyl)-N^2-(3-pyridin-4-yl-propyl)-pyrido[2,3d]pyrimidine-2,4-diamine], for which, in data set [1] (setting [2]), the IC50 was 250 to 1000 nM.

What is called melting point is the temperature, or range, at which the solid turns liquid.
